Values of other authors as cited in EP4219603A1, “A METHOD FOR PURIFICATION OF ORGANIC WATER-SOLUBLE POLYMERS FROM HYDROPHOBIC CONTAMINANTS” (Ustav experimentálnej fyziky SAV, v.v.i., priority 2022, dated 2023).

settings: logarithm of the octanol/water partition coefficient; contaminants from Examples 1 to 9 identified in GC-MS HS-SPME elugrams

SMILES	log P
CCCCCCCCCCCC(=O)OC(C)C [isopropyl dodecanoate]	6.37
CCCCCCCCCCCC [dodecane]	7.13
CCCCCCCCCCCC(=O)OCC [ethyl dodecanoate]	6.00
CCCCCCCCCCCCC [tridecane]	7.66
CCCCCCCCCCCCCC [tetradecane]	8.19
CC(C)COC(=O)c1ccccc1C(=O)OCC(C)C [di-isobutyl phtalate]	4.46
C[C@]12CC[C@H]3C(=CCc4cc(OC(=O)c5ccccc5)ccc43)[C@@H]1CCC2=O [equilin benzoate]	5.63
CCCCCCCCCCCC(C)=O [2-tridecanone]	5.16
CC(C)c1ccc2c(c1)CC[C@H]1[C@](C)(CO)CCC[C@]21C [dehydroabietol]	6.35
CCCCCCCCCCCCCCCCCC [octadecane]	10.32
Clc1cc(Cl)cc(-c2ccccc2)c1 [dichlorobiphenyl (PCB 14)]	5.41
CCCCCCCCCCCCCC(=O)OC(C)C [isopropyl tetradecanoate]	7.43
CCCCCCCCCCCCCCCC [hexadecane]	9.26
CCCCC(CC)COC(=O)c1ccccc1 (stereo not drawn) [2-ethylhexyl benzoate]	5.73
c1ccc(-c2ccccc2)cc1 [bifenyl]	4.00

same assay, conditions: logarithm of the octanol/water partition coefficient; model contaminants added to the polymer

SMILES	log P
CCCCCCCCCCCC(=O)OCC [ethyl dodecanoate]	6.00
CCCCCCCCCCCCCCCCCC [octadecane]	10.32
Clc1cc(Cl)cc(-c2ccccc2)c1 [dichlorobiphenyl (PCB 14)]	5.41
